Measured values from patent EP3074024B1, “ANTIMICROBIAL COMPOSITIONS FOR USE IN PRODUCTS FOR PETROLEUM EXTRACTION, PERSONAL CARE, WOUND CARE AND OTHER APPLICATIONS” (Agienic Inc., priority 2013, dated 2015).

Key:
[1] = room temperature; cited from earlier work
[2] = system: Desulfovibrio vulgaris (ATCC 29579); test: Activity against sulfate reducing bacteria (3-tube MPN); format: cell-based; conditions: 10ppm; one hour of contact time; starting 2x10^7 mpn/ml; SRB2 media
Method: D. vulgaris was cultured for 2 days prior to experiment in SRB 2 media (Intertek). From this culture, 2 ml of inoculum was added to 18 ml anaerobic phosphate buffered saline (PBS).
Each concentration was tested in duplicate. […] The sealed bottles were incubated at room temperature (23°C) without agitation.
An initial sample was taken from the positive control to establish a starting concentration of bacteria for the experiment. 0.5 ml samples were taken at 1 hour time point and diluted in 4.5 ml anaerobic Dey/Engely (D/E) neutralizing broth to neutralize the Cu bacteriocide. A 1:10 dilution series was made using anaerobic PBS. Bacterial numbers were quantified by a 3-tube most probable number (MPN) method. Three tubes of anaerobic modified Baar's media (10 ml each) per dilution were inoculated with 1 ml each from their respective diluted sample. These tubes were incubated at 37°C for 72 hours. Positive samples were evaluated based on the presence of iron sulfide (FeS), which forms a black precipitate as a byproduct of hydrogen sulfide produced by bacterial growth reacting with iron included in the modified Baar's media.
All test media (PBS, D/E and modified Baar's media) were pretreated with 100 µl Oxyrase oxygen scavengers (obtained from Oxyrase Inc, Mansfield, OH) to render the test media anaerobic. […]

Compound | Water solubility [1] | log10 reduction [2]
[Cu][Br] [CuBr, Copper bromide] | 11 µg/mL | –
[Cl][Cu][Cl] [CuCl2, copper (II) chloride] | – | less than 3 log10
O=CCCCC=O [gluteraldehyde] | – | greater than 4.23 log10
